Measurements: US20250346585A1 (Alexion Pharmaceuticals, Inc., priority 2022, published 2025)
pIC50: −log10 of the molar value.

target: Human complement C1s enzyme (Homo sapiens (Human), UniProt P09871); test: Human C1s enzyme assay; assay type: biochemical; conditions: Human C1s enzyme assay of Example 3; read-out: IC50 (Stars)
Outline: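 IC50 derived by nonlinear regression of rate versus concentration, with rate taken from A405 kinetics (30 s intervals, 30 min) after adding 100 μM each Z-L-Lys-SBzl and DTNB. C1s from human serum, 1.16 nM, exposed to compound for 5 min at RT beforehand; buffer 50 mM Tris, 1 M NaCl, pH 7.5.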

Chain of Human complement C1s enzyme (P09871 438-688 limits assumed): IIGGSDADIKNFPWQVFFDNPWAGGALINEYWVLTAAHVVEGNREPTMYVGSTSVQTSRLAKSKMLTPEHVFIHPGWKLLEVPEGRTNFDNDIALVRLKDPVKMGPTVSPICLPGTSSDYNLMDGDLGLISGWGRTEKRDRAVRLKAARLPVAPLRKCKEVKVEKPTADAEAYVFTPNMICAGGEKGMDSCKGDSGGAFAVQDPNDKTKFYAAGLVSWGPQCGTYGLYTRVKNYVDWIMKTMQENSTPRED
Chain of Human complement C1s enzyme (P09871 16-437 partner limits assumed): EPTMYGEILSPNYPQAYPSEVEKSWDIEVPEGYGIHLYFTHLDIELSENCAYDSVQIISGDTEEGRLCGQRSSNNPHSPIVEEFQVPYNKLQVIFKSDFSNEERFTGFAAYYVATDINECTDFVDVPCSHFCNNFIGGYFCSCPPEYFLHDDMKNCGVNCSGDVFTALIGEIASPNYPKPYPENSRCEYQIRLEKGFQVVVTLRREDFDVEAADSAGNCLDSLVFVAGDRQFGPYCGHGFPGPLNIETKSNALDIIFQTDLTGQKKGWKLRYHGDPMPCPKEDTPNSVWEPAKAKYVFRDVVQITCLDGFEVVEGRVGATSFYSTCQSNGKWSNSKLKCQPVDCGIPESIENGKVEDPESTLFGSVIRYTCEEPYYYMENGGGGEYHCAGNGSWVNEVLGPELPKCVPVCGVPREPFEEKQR

SMILES | pIC50
C[C@@H](NC(=O)[C@@H]1CC2(CN1C(=O)CNC(=O)c1cccc(-c3ccc(F)cc3)c1)OCCO2)c1cc(C(=N)N)cs1 [Compound 112, (S)—N—((R)-1-(4-carbamimidoylthiophen-2-yl)ethyl)-7-((4′-fluoro-[1,1′-biphenyl]-3-carbonyl)glycyl)-1,4-dioxa-7-azaspiro[4.4]nonane-8-carboxamide] | > 7.00
C[C@@H](NC(=O)[C@@H]1C[C@]2(CO)C[C@@H]2N1C(=O)CNC(=O)c1ccc(Oc2ccc(F)cc2)cc1)c1cc(C(=N)N)cs1 [Compound 42, (1S,3S,5R)—N—((R)-1-(4-carbamimidoylthiophen-2-yl)ethyl)-2-((4-(4-fluorophenoxy)benzoyl)glycyl)-5-(hydroxymethyl)-2-azabicyclo[3.1.0]hexane-3-carboxamide] | > 7.00
C[C@@H](NC(=O)[C@@H]1C[C@@H](OC(F)F)CN1C(=O)CNC(=O)c1ccc(Oc2ccc(C(F)F)cc2)cc1)c1cc(C(=N)N)cs1 [Compound 65, (2S,4R)—N—((R)-1-(4-carbamimidoylthiophen-2-yl)ethyl)-4-(difluoromethoxy)-1-((4-(4-(difluoromethyl)phenoxy)benzoyl)glycyl)pyrrolidine-2-carboxamide] | > 7.00
Cc1cc(C(=O)NCC(=O)N2[C@H]3C[C@@]3(C)C[C@H]2C(=O)N[C@H](C)c2cc(C(=N)N)cs2)ccc1Oc1ccccc1 [Compound 28, (1S,3S,5S)—N—((R)-1-(4-carbamimidoylthiophen-2-yl)ethyl)-5-methyl-2-((3-methyl-4-phenoxybenzoyl)glycyl)-2-azabicyclo[3.1.0]hexane-3-carboxamide] | > 7.00
C[C@@H](NC(=O)[C@@H]1CC2(CN1C(=O)CNC(=O)c1ccc3c(c1)-c1ccccc1C3(F)F)OCCO2)c1cc(-c2cn[nH]n2)cs1 [Compound 152, (S)—N—((R)-1-(4-(2H-1,2,3-triazol-4-yl)thiophen-2-yl)ethyl)-7-((9,9-difluoro-9H-fluorene-3-carbonyl)glycyl)-1,4-dioxa-7-azaspiro[4.4]nonane-8-carboxamide] | < 6.00
C[C@@H](NC(=O)[C@@H]1CC2(CN1C(=O)CNC(=O)c1ccc3c(c1)-c1ccccc1C3(F)F)OCCO2)c1cc(-c2ncc[nH]2)cs1 [Compound 87, (S)—N—((R)-1-(4-(1H-imidazol-2-yl)thiophen-2-yl)ethyl)-7-((9,9-difluoro-9H-fluorene-3-carbonyl)glycyl)-1,4-dioxa-7-azaspiro[4.4]nonane-8-carboxamide] | > 7.00
C[C@H](O)[C@H](O)[C@@H](O)[C@@H](O)CNCC(=O)NCCOC[C@@]12C[C@@H]1N(C(=O)CNC(=O)CCCOc1ccccc1)[C@H](C(=O)N[C@H](C)c1cc(C(=N)N)cs1)C2 [Compound 2, (1S,3S,5R)—N—((R)-1-(4-carbamimidoylthiophen-2-yl)ethyl)-2-((4-phenoxybutanoyl)glycyl)-5-((2-(2-(((2S,3S,4S,5S)-2,3,4,5-tetrahydroxyhexyl)amino)acetamido)ethoxy)methyl)-2-azabicyclo[3.1.0]hexane-3-carboxamide] | > 7.00
N=C(N)c1cc(CNC(=O)[C@@H]2CC3(CN2C(=O)CNC(=O)c2ccc(-c4ccccc4)cc2)OCCO3)cs1 [Compound 147, (S)-7-(([1,1′-biphenyl]-4-carbonyl)glycyl)-N-((5-carbamimidoylthiophen-3-yl)methyl)-1,4-dioxa-7-azaspiro[4.4]nonane-8-carboxamide] | > 7.00
Cc1cnc(-c2ccc(C(=O)NCC(=O)N3CC4(C[C@H]3C(=O)N[C@H](C)c3cc(C(=N)N)cs3)OCCO4)cc2)c(C)c1 [Compound 173, (S)—N—((R)-1-(4-carbamimidoylthiophen-2-yl)ethyl)-7-((4-(3,5-dimethylpyridin-2-yl)benzoyl)glycyl)-1,4-dioxa-7-azaspiro[4.4]nonane-8-carboxamide] | > 7.00
Cc1cc(C(=O)NCC(=O)N2CC3(C[C@H]2C(=O)N[C@H](C)c2cc(C(=N)N)cs2)OCCO3)cc2c1C(F)(F)c1ccccc1-2 [Compound 179, (S)—N—((R)-1-(4-carbamimidoylthiophen-2-yl)ethyl)-7-((9,9-difluoro-1-methyl-9H-fluorene-3-carbonyl)glycyl)-1,4-dioxa-7-azaspiro[4.4]nonane-8-carboxamide] | > 7.00

same assay, conditions: Human complement C1s enzyme 1.16 nM, substrate Z-L-Lys-SBzl 100 μM, assay of Example 3; read-out: IC50 (Stars)

SMILES | pIC50
N=C(N)c1csc(CNC(=O)[C@@H]2CC3(CN2C(=O)CN2Cc4cc(-c5ccccc5)ccc4C2=O)OCCO3)c1 [Compound 231, (S)—N-((4-carbamimidoylthiophen-2-yl)methyl)-7-(2-(1-oxo-5-phenylisoindolin-2-yl)acetyl)-1,4-dioxa-7-azaspiro[4.4]nonane-8-carboxamide] | > 7.00
C[C@@H](NC(=O)[C@@H]1C[C@@H](C(F)(F)F)CN1C(=O)CNC(=O)c1ccc2c(c1)-c1ccccc1C2(F)F)c1cc(C(=N)N)cs1 [Compound 324, (2S,4R)—N—((R)-1-(4-carbamimidoylthiophen-2-yl)ethyl)-1-((9,9-difluoro-9H-fluorene-3-carbonyl)glycyl)-4-(trifluoromethyl)pyrrolidine-2-carboxamide] | > 7.00
C[C@@H](NC(=O)[C@@H]1C[C@@H](OC(F)F)CN1C(=O)CNC(=O)c1ccc2c(c1)S(=O)(=O)c1ccccc1-2)c1cc(C(=N)N)cs1 [Compound 362, (2S,4R)—N—((R)-1-(4-carbamimidoylthiophen-2-yl)ethyl)-4-(difluoromethoxy)-1-((5,5-dioxidodibenzo[b,d]thiophene-3-carbonyl)glycyl) pyrrolidine-2-carboxamide] | > 7.00
C[C@@H](NC(=O)[C@@H]1C[C@](F)(CF)CN1C(=O)CNC(=O)c1ccc2sc3ccccc3c2c1)c1cc(C(=N)N)cs1 [Compound 354, (2S,4R)—N—((R)-1-(4-carbamimidoylthiophen-2-yl)ethyl)-1-((dibenzo[b,d]thiophene-2-carbonyl)glycyl)-4-fluoro-4-(fluoromethyl)pyrrolidine-2-carboxamide] | > 7.00
COC[C@H]1C[C@@H](C(=O)N[C@H](C)c2cc(C(=N)N)cs2)N(C(=O)CNC(=O)c2ccc3oc4ccccc4c3c2)C1 (relative stereo) [Compound 219, (2S,4S*)—N—((R)-1-(4-carbamimidoylthiophen-2-yl)ethyl)-1-((dibenzo[b,d]furan-2-carbonyl)glycyl)-4-(methoxymethyl)pyrrolidine-2-carboxamide] | > 7.00
COC[C@@]1(F)C[C@@H](C(=O)N[C@H](C)c2cc(C(=N)N)cs2)N(C(=O)CNC(=O)c2ccc3c(c2)S(=O)(=O)c2ccccc2-3)C1 [Compound 350, (2S,4R)—N—((R)-1-(4-carbamimidoylthiophen-2-yl)ethyl)-1-((5,5-dioxidodibenzo[b,d]thiophene-3-carbonyl)glycyl)-4-fluoro-4-(methoxymethyl) pyrrolidine-2-carboxamide] | > 7.00
COc1ccc(-c2ccc(C(=O)NCC(=O)N3CC4(C[C@H]3C(=O)NCc3cc(C(=N)N)cs3)OCCO4)cc2)cc1 [Compound 217, (S)—N-((4-carbamimidoylthiophen-2-yl)methyl)-7-((4′-methoxy-[1,1′-biphenyl]-4-carbonyl)glycyl)-1,4-dioxa-7-azaspiro[4.4]nonane-8-carboxamide] | > 7.00
C[C@@H](NC(=O)[C@@H]1C[C@@H](OC(F)F)CN1C(=O)CNC(=O)c1ccc2c(c1)C(F)(F)c1ccccc1-2)c1cc(C(=N)N)cs1 [Compound 262, (2S,4R)—N—((R)-1-(4-carbamimidoylthiophen-2-yl)ethyl)-1-((9,9-difluoro-9H-fluorene-2-carbonyl)glycyl)-4-(difluoromethoxy)pyrrolidine-2-carboxamide] | > 7.00
C[C@@H](NC(=O)[C@@H]1CC2(CN1C(=O)CNC(=O)c1ccc3c(c1)oc1ccccc13)OCCO2)c1cc(C(=N)N)cs1 [Compound 279, (S)—N—((R)-1-(4-carbamimidoylthiophen-2-yl)ethyl)-7-((dibenzo[b,d]furan-3-carbonyl)glycyl)-1,4-dioxa-7-azaspiro[4.4]nonane-8-carboxamide] | > 7.00
Nc1cccc(Nc2csc(CNC(=O)[C@@H]3CC4(CN3C(=O)CNC(=O)c3ccc(Oc5ccc(F)cc5)cc3)OCCO4)c2)n1 [Compound 285, (S)-N-((4-((6-aminopyridin-2-yl)amino)thiophen-2-yl)methyl)-7-((4-(4-fluorophenoxy)benzoyl)glycyl)-1,4-dioxa-7-azaspiro[4.4]nonane-8-carboxamide] | < 6.00

same assay, conditions: Human complement C1s enzyme 1.16 nM, substrate Z-L-Lys-SBzl; assay of Example 3; read-out: IC50 (Stars)

SMILES | pIC50
CS(=O)(=O)[C@@H]1C[C@@H](C(=O)N[C@H](CO)c2cc(C(=N)N)cs2)N(C(=O)CNC(=O)c2ccc3c(c2)C(F)(F)c2ccccc2-3)C1 [Compound 406, (2S,4R)—N—((R)-1-(4-carbamimidoylthiophen-2-yl)-2-hydroxyethyl)-1-((9,9-difluoro-9H-fluorene-2-carbonyl)glycyl)-4-(methylsulfonyl)pyrrolidine-2-carboxamide] | > 7.00
Cc1ccc(-c2cccc(C(=O)NCC(=O)N3C[C@H](S(C)(=O)=O)C[C@H]3C(=O)N[C@H](CO)c3cc(C(=N)N)cs3)c2)cc1 [Compound 404, (2S,4R)—N—((R)-1-(4-carbamimidoylthiophen-2-yl)-2-hydroxyethyl)-1-((4′-methyl-[1,1′-biphenyl]-3-carbonyl)glycyl)-4-(methylsulfonyl) pyrrolidine-2-carboxamide] | > 7.00
